Experimental data reported in patent publication US12686673B2 (Blueprint Medicines Corporation, priority 2020, dated 2026).
Counter-ions that a name gives are not always drawn. Like-named read-outs stand apart in the source and are kept apart here.

Legend:
Type in all cases: cell-based
[1] = target: EGFR (A767_dupASV) expressing Ba/F3 stable cell line (Homo sapiens, UniProt P00533, DUP767-769, cells depend on it); assay: Cellular proliferation (Alamar Blue) assay, EGFR A767_dupASV Ba/F3; settings: 72 hr, read-out: A767 IC50
Chain of EGFR (A767_dupASV) expressing Ba/F3 stable cell line (P00533 with tags, fused parts or gaps DUP767-769): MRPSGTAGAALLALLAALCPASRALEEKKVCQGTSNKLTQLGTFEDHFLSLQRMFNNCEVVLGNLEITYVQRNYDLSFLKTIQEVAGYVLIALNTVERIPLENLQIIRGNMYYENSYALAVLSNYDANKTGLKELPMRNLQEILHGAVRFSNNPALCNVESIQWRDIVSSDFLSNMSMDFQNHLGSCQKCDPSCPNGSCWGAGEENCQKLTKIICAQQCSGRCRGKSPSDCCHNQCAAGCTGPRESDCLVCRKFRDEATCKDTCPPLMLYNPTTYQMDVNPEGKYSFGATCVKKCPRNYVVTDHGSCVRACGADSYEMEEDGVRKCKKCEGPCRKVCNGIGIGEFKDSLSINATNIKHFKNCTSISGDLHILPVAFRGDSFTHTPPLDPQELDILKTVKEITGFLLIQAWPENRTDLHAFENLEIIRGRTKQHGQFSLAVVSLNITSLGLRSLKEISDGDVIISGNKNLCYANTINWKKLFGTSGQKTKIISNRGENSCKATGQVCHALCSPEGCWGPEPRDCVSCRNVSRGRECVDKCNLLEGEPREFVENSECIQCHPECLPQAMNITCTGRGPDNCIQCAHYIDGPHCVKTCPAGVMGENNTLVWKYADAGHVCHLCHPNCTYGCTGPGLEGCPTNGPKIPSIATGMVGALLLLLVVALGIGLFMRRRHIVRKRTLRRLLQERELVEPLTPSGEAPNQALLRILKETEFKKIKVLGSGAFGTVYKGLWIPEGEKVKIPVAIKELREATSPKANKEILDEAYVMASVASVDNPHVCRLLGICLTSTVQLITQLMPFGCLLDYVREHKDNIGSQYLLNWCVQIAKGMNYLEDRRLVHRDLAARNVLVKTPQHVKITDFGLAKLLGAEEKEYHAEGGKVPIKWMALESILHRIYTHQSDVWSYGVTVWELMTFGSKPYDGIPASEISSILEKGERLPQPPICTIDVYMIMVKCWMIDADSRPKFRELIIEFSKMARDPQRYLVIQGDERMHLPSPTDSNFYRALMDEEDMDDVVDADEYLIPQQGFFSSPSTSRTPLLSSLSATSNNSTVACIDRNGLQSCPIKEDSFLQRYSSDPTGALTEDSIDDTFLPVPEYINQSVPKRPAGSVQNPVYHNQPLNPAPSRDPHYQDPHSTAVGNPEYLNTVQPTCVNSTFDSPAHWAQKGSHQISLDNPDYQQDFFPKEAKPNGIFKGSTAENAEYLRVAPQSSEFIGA
Procedure, shortened: (§1)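 Steps: plate 15,000 Ba/F3 cells/well in RPMI/10% FBS; rest 16-18 h, 37 °C; add compound at final 10-0.0005 μM (3-fold series) or DMSO; incubate 72 hr; add Alamar Blue; read after 3 h.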

[2] = target: HER2 (A775_G776insYVMA) expressing Ba/F3 stable cell line (Homo sapiens, UniProt P04626, DUP772-775, cells depend on it); assay: Cellular proliferation (Alamar Blue) assay, HER2 A775_G776insYVMA Ba/F3; settings: 72 hr, read-out: YVMA IC50
Chain of HER2 (A775_G776insYVMA) expressing Ba/F3 stable cell line (P04626 with tags, fused parts or gaps DUP772-775): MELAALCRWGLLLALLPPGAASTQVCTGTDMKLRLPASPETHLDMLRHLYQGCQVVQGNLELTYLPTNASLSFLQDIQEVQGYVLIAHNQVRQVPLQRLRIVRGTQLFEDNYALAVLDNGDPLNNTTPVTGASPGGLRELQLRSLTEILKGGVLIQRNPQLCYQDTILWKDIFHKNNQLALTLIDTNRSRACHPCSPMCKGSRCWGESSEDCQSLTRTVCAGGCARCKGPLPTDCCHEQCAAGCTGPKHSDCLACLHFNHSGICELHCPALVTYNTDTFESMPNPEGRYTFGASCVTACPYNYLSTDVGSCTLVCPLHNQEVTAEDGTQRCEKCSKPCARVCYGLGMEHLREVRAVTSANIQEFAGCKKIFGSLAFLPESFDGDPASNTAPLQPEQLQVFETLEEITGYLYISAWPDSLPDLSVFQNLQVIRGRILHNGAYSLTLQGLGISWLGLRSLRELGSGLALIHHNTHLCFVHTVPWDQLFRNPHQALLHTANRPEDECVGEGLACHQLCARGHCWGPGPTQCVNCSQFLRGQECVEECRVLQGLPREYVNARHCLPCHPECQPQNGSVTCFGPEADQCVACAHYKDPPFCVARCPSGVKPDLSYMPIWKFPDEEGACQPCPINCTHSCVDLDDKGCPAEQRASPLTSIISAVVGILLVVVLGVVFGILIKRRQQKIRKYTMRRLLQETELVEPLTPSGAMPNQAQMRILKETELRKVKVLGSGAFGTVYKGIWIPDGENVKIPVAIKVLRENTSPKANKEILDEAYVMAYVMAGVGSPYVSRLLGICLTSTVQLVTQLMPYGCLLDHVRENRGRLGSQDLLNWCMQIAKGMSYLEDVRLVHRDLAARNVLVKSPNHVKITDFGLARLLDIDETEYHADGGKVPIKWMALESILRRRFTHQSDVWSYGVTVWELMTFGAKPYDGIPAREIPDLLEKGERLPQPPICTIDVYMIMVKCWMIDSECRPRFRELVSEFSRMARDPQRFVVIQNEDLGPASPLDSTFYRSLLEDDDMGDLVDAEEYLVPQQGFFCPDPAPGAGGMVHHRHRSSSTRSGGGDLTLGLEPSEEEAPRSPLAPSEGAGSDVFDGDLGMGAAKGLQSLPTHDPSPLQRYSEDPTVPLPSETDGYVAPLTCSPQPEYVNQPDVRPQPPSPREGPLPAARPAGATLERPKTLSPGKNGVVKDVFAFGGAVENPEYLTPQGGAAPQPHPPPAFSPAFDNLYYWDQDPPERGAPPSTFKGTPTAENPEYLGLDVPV
Procedure, shortened: as §1

[3] = target: EGFR(D770_N771insSVD) expressing Ba/F3 stable cell line (Homo sapiens, UniProt P00533, DUP768-770, cells depend on it); assay: Cellular proliferation (Alamar Blue) assay, EGFR D770_N771insSVD Ba/F3; settings: 72 hr, read-out: D770 IC50
Chain of EGFR(D770_N771insSVD) expressing Ba/F3 stable cell line (P00533 with tags, fused parts or gaps DUP768-770): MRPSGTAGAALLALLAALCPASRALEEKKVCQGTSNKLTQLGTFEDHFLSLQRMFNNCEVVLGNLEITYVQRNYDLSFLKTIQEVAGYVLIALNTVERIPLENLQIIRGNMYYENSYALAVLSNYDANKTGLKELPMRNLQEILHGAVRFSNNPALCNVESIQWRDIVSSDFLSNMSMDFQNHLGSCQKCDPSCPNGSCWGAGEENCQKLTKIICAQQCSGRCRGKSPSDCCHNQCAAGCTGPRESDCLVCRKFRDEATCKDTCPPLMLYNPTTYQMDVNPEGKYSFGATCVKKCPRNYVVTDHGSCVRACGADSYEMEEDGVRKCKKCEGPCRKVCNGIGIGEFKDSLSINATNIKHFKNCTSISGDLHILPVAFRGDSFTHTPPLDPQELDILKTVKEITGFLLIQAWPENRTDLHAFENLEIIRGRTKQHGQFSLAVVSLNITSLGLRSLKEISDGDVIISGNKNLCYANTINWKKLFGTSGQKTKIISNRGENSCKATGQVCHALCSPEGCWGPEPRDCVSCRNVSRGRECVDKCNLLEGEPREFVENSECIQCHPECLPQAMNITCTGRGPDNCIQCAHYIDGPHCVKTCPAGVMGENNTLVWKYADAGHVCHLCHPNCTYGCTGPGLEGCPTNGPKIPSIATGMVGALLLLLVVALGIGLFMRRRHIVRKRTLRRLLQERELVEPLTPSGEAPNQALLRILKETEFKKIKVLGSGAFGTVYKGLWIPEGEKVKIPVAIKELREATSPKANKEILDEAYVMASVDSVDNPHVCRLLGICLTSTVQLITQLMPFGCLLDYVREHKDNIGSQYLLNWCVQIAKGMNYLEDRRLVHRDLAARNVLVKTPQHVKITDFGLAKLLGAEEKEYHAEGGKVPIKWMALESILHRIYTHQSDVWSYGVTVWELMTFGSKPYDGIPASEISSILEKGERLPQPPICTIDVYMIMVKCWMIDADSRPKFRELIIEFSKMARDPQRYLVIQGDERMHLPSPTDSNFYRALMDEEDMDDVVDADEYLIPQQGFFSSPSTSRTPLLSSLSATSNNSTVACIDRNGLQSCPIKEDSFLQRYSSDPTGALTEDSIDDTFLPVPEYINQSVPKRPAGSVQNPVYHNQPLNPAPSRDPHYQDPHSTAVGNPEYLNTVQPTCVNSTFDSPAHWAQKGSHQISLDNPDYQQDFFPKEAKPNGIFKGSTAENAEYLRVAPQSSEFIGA
Procedure, shortened: as §1

A431 cells = assay: Cellular proliferation (Alamar Blue) assay, A431
[4] = Homo sapiens, A-431; A431 cells, Alamar Blue, 72 hr; read-out: A431 IC50
[5] = Homo sapiens, A-431; A431 cells, 72 hr, Alamar Blue; read-out: A431 IC50

SMILES | GI50 [1] | GI50 [2] | GI50 [3] | IC50 (A431 cells; [4]) | IC50 (A431 cells; [5])
C=CC(=O)Nc1ccc(F)c(Nc2nc(Nc3cnn(C)c3)ncc2-c2ccc(-c3ccccc3)cc2)c1 [Compound 127, N-(3-((5-([1,1′-biphenyl]-4-yl)-2-((1-methyl-1H-pyrazol-4-yl)amino)pyrimidin-4-yl)amino)-4-fluorophenyl)acrylamide] | 565 nM | 5280 nM | 971 nM | 258 nM | 
C=CC(=O)Nc1ccc(F)c(Nc2nc(Nc3cnn(C)c3)ncc2-c2cccc(NC(C)=O)c2)c1 [Compound 59, N-(3-((5-(3-acetamidophenyl)-2-((1-methyl-1H-pyrazol-4-yl)amino)pyrimidin-4-yl)amino)-4-fluorophenyl)acrylamide] | > 10000 nM | ≥ 10000 nM | > 10000 nM | > 10000 nM | 
C=CC(=O)Nc1ccc(F)c(Nc2nc(Nc3cnn(C)c3)ncc2-c2cccc(Br)c2)c1 [Compound 201, N-(3-((5-(3-bromophenyl)-2-((1-methyl-1H-pyrazol-4-yl)amino)pyrimidin-4-yl)amino)-4-fluorophenyl)acrylamide] | 227 nM | 424 nM | 270 nM |  | 1520 nM
C=CC(=O)Nc1cccc(Nc2nc(Nc3cnn(C)c3)ncc2CN(Cc2ccccc2)C(C)=O)c1 [Compound 48, N-(3-((5-((N-benzylacetamido)methyl)-2-((1-methyl-1H-pyrazol-4-yl)amino)pyrimidin-4-yl)amino)phenyl)acrylamide] | > 10000 nM | > 10000 nM | 8800 nM | > 10000 nM | 
CN(C)C/C=C/C(=O)Nc1ccc(C#Cc2ccccc2)c(Nc2nc(Nc3cnn(C)c3)ncc2Cl)c1 [Compound 179, (E)-N-(3-((5-chloro-2-((1-methyl-1H-pyrazol-4-yl)amino)pyrimidin-4-yl)amino)-4-(phenylethynyl)phenyl)-4-(dimethylamino)but-2-enamide] | > 10000 nM | 4030 nM | > 10000 nM | > 10000 nM | 
C=CC(=O)Nc1ccc(F)c(Nc2nc(Nc3cnn(C)c3)ncc2NC(=O)c2ccccc2)c1 [Compound 50, N-(4-((5-acrylamido-2-fluorophenyl)amino)-2-((1-methyl-1H-pyrazol-4-yl)amino)pyrimidin-5-yl)benzamide] | 1470 nM | 8620 nM | 1730 nM | > 10000 nM | 
C=CC(=O)Nc1ccc(-c2ccccc2)c(Nc2nc(Nc3cnn(C)c3)ncc2Cl)c1 [Compound 177, N-(2-((5-chloro-2-((1-methyl-1H-pyrazol-4-yl)amino)pyrimidin-4-yl)amino)-[1,1′-biphenyl]-4-yl)acrylamide] | > 10000 nM | > 10000 nM | > 10000 nM | > 10000 nM | 
C=CC(=O)Nc1ccc(F)c(Nc2nc(Nc3cnn(C)c3)ncc2-c2cccc(C(=O)NC)c2)c1 [Compound 60, 3-(4-((5-acrylamido-2-fluorophenyl)amino)-2-((1-methyl-1H-pyrazol-4-yl)amino)pyrimidin-5-yl)-N-methylbenzamide] | 7650 nM | 6580 nM | 7940 nM | > 10000 nM | 
C=CC(=O)Nc1ccc(F)c(Nc2nc(Nc3cnn(C)c3)ncc2C#Cc2ccccc2)c1 [Compound 161, N-[4-fluoro-3-({2-[(1-methyl-1H-pyrazol-4-yl)amino]-5-(2-phenylethynyl)pyrimidin-4-yl}amino)phenyl]prop-2-enamide] | 289 nM | 897 nM | 288 nM | > 10000 nM | 
C=CC(=O)Nc1ccc(C(=O)Nc2ccccc2)c(Nc2ccnc(Nc3cnn(C)c3)n2)c1 [Compound 164, 4-acrylamido-2-((2-((1-methyl-1H-pyrazol-4-yl)amino)pyrimidin-4-yl)amino)-N-phenylbenzamide] | > 10000 nM | 9490 nM | > 10000 nM | > 10000 nM | 
C=CC(=O)Nc1ccc(F)c(Nc2nc(Nc3cnn(C)c3)ncc2-c2ccc3[nH]ccc3c2)c1 [Compound 97, N-(4-fluoro-3-{[5-(1H-indol-5-yl)-2-[(1-methyl-1H-pyrazol-4-yl)amino]pyrimidin-4-yl]amino}phenyl)prop-2-enamide] | 862 nM | 403 nM | 546 nM | 586 nM | 
C=CC(=O)Nc1cccc(Nc2nc(Nc3cnn(C)c3)ncc2CN(C(C)=O)c2ccccc2)c1 [Compound 18] | 7160 nM | > 10000 nM | > 10000 nM | > 10000 nM | 
C=CC(=O)Nc1cccc(Nc2nc(Nc3cnn(C)c3)ncc2CN(C(C)=O)C(C)c2ccccc2)c1 (stereo not drawn) [Compound 19, N-(3-((2-((1-methyl-1H-pyrazol-4-yl)amino)-5-((N-(1-phenylethyl)acetamido)methyl)pyrimidin-4-yl)amino)phenyl)acrylamide] | > 10000 nM | > 10000 nM | > 10000 nM | > 10000 nM | 
C=CC(=O)Nc1ccc(F)c(Nc2nc(Nc3cnn(C)c3)ncc2-c2ccncc2)c1 [Compound 137, N-(4-fluoro-3-((2-((1-methyl-1H-pyrazol-4-yl)amino)-5-(pyridin-4-yl)pyrimidin-4-yl)amino)phenyl)acrylamide] | 325 nM | 751 nM | 254 nM | > 10000 nM | 
COC/C=C/C(=O)Nc1ccc(F)c(Nc2nc(Nc3cnn(C)c3)ncc2Cl)c1 [Compound 6, (E)-N-(3-((5-chloro-2-((1-methyl-1H-pyrazol-4-yl)amino)pyrimidin-4-yl)amino)-4-fluorophenyl)-4-methoxybut-2-enamide] | > 10000 nM | 9010 nM | > 10000 nM | > 10000 nM | 
C=C(C)C(=O)Nc1ccc(F)c(Nc2nc(Nc3cnn(C)c3)ncc2Cl)c1 [Compound 12, N-(3-((5-chloro-2-((1-methyl-1H-pyrazol-4-yl)amino)pyrimidin-4-yl)amino)-4-fluorophenyl)methacrylamide] | > 10000 nM | 7030 nM | > 10000 nM | > 10000 nM | 
C=CC(=O)Nc1ccc(F)c(Nc2nc(Nc3cnn(C)c3)ncc2-c2ccc3c(ccn3C)c2)c1 [Compound 77, N-(4-fluoro-3-((5-(1-methyl-1H-indol-5-yl)-2-((1-methyl-1H-pyrazol-4-yl)amino)pyrimidin-4-yl)amino)phenyl)acrylamide trifluoroacetate] | 774 nM | 2750 nM | 299 nM | 1030 nM | 

Second part, the compound after the results:

GI50 [1] | GI50 [2] | GI50 [3] | IC50 (A431 cells; [4]) | IC50 (A431 cells; [5]) | SMILES
115 nM | 202 nM | 91 nM |  | 63 nM | C=CC(=O)Nc1ccc(F)c(Nc2nc(Nc3cn(C)nc3Cl)ncc2-c2ccc(C(F)(F)F)cc2)c1 [Compound 245, N-[3-({2-[(3-chloro-1-methyl-1H-pyrazol-4-yl)amino]-5-[4-(trifluoromethyl)phenyl]pyrimidin-4-yl}amino)-4-fluorophenyl]prop-2-enamide]
257 nM | 339 nM | 99 nM |  | 173 nM | C=CC(=O)Nc1ccc(F)c(Nc2nc(Nc3cnn(C)c3)ncc2-c2ccc3ccoc3c2)c1 [Compound 299, N-(3-((5-(benzofuran-6-yl)-2-((1-methyl-1H-pyrazol-4-yl)amino)pyrimidin-4-yl)amino)-4-fluorophenyl)acrylamide]
861 nM | 2010 nM | 395 nM |  | 441 nM | C=CC(=O)Nc1ccc(F)c(Nc2nc(Nc3cnn(CC(C)(C)O)c3)ncc2-c2ccc(C(F)(F)F)cc2)c1 [Compound 240, N-(4-fluoro-3-((2-((1-(2-hydroxy-2-methylpropyl)-1H-pyrazol-4-yl)amino)-5-(4-(trifluoromethyl)phenyl)pyrimidin-4-yl)amino)phenyl)acrylamide]
80 nM | 803 nM | 100 nM |  | 45 nM | C=CC(=O)Nc1ccc(F)c(Nc2nc(Nc3cnn(C)c3)ncc2-c2ccc(C3(C(F)(F)F)CC3)cc2)c1 [Compound 294, N-(4-fluoro-3-((2-((1-methyl-1H-pyrazol-4-yl)amino)-5-(4-(1-(trifluoromethyl)cyclopropyl)phenyl)pyrimidin-4-yl)amino)phenyl)acrylamide]
68 nM | 187 nM | 193 nM |  | 16 nM | CN(C)C/C=C/C(=O)Nc1ccc(F)c(Nc2nc(Nc3cnn(C)c3)ncc2-c2ccc(CC(F)(F)F)cc2)c1 [Compound 301, (E)-4-(dimethylamino)-N-(4-fluoro-3-((2-((1-methyl-1H-pyrazol-4-yl)amino)-5-(4-(2,2,2-trifluoroethyl)phenyl)pyrimidin-4-yl)amino)phenyl)but-2-enamide]
289 nM | 9740 nM | 1160 nM |  | 229 nM | C=CC(=O)Nc1ccc(F)c(Nc2nc(Nc3cnn(C)c3)ncc2-c2ccc(Oc3cccc(F)c3)cc2)c1 [Compound 300, N-(4-fluoro-3-((5-(4-(3-fluorophenoxy)phenyl)-2-((1-methyl-1H-pyrazol-4-yl)amino)pyrimidin-4-yl)amino)phenyl)acrylamide]
67 nM | 653 nM | 99 nM |  | 12 nM | C=CC(=O)Nc1cc(Br)cc(Nc2nc(Nc3cnn(C)c3)ncc2-c2ccc(CC(F)(F)F)cc2)c1 [Compound 302, N-(3-bromo-5-((2-((1-methyl-1H-pyrazol-4-yl)amino)-5-(4-(2,2,2-trifluoroethyl)phenyl)pyrimidin-4-yl)amino)phenyl)acrylamide]
